Source: US6117841A, “Substituted peptidylamine calcium channel blockers” (Warner-Lambert Company, priority 1999, dated 2000)
Like-named read-outs stand apart in the source and are kept apart here. Blank lines part the entries; values can stand above or below the compound they belong to.

Assays:
N-type Ca^2+ Channel = molecular target: T1, N-type Ca^2+ Channel (Homo sapiens, UniProt Q00975); experiment: Measurement of N-type Ca2+ channel blocking potencies in IMR-32 cells using the fluorescent Ca2+ indicator Indo-1; assay type: cell-based
T1 construct: host or cells: IMR-32 cells differentiated with dibutyryl cAMP and bromodeoxyuridine
T1 sequence (Q00975 whole entry): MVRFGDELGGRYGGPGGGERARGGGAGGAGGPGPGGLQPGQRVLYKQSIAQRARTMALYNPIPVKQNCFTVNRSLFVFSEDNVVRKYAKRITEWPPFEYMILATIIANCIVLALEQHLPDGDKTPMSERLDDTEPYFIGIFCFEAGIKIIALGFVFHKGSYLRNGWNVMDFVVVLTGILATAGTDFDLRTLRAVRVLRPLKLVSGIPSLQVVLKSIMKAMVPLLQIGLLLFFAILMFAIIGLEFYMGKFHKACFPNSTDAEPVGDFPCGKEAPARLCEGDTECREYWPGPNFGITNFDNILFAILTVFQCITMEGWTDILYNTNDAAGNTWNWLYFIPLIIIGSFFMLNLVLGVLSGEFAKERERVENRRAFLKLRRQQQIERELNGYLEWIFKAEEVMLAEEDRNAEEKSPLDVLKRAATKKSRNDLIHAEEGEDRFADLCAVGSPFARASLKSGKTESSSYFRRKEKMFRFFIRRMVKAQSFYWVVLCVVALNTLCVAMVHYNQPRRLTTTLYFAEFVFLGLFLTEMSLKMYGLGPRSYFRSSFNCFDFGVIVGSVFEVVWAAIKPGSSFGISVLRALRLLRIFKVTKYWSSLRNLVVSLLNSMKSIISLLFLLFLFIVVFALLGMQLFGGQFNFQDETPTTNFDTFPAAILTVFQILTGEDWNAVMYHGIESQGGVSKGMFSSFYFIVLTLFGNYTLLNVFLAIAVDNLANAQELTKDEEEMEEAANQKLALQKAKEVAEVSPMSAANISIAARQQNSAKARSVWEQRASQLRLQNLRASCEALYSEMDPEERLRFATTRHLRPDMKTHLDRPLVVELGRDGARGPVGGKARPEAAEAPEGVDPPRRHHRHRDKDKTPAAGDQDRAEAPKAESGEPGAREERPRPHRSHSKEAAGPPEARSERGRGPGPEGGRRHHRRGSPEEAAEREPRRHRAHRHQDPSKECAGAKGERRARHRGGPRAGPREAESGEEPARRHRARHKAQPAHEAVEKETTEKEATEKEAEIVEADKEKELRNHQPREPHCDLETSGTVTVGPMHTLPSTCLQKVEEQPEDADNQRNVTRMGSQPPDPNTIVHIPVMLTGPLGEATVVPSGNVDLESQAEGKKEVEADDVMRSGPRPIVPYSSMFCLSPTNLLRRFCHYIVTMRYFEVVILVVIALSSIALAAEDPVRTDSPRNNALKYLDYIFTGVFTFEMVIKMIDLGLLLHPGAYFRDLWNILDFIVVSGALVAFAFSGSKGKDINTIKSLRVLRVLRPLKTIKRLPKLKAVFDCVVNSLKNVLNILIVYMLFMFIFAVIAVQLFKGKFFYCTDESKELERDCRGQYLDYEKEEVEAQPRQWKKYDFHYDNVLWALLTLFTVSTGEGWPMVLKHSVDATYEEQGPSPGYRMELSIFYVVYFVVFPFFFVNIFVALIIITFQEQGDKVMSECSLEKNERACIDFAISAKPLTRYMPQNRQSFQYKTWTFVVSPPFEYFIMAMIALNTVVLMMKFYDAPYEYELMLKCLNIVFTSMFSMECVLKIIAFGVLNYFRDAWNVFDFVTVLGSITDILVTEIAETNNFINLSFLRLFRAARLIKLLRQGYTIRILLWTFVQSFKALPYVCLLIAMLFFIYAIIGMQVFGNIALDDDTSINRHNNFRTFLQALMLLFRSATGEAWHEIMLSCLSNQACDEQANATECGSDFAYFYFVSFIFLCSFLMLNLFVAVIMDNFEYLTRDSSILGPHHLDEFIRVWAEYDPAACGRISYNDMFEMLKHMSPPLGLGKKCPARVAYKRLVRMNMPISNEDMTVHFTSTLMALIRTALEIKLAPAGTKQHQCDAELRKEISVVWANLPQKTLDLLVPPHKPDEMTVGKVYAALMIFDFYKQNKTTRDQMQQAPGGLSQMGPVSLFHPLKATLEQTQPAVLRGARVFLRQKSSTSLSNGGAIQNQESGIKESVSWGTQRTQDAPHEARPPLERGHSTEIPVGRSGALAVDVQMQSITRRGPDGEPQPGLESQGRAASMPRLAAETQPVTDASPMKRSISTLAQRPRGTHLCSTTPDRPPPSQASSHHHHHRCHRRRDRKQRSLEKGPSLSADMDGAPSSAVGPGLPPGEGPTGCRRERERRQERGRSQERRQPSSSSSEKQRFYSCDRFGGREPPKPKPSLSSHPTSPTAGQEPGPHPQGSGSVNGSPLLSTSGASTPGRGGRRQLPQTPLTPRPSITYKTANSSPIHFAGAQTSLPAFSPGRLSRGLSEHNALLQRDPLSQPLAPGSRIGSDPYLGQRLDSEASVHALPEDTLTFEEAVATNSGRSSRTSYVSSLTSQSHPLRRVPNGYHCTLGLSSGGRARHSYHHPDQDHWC
T1 sequence (P54284 whole entry partner): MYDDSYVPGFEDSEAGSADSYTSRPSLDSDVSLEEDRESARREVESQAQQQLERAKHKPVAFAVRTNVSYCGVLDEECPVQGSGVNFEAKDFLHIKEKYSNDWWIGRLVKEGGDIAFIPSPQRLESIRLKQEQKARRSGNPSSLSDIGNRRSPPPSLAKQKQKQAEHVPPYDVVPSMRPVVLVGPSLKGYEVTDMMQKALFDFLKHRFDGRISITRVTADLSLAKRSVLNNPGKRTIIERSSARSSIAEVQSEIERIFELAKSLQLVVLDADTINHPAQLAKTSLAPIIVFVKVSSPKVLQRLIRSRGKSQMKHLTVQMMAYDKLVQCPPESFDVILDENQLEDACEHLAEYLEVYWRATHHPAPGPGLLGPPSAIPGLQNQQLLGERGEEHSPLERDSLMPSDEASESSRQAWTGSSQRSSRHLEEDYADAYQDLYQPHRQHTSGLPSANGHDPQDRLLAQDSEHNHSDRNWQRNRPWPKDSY
T1 sequence (P54289 25-946 partner limits assumed): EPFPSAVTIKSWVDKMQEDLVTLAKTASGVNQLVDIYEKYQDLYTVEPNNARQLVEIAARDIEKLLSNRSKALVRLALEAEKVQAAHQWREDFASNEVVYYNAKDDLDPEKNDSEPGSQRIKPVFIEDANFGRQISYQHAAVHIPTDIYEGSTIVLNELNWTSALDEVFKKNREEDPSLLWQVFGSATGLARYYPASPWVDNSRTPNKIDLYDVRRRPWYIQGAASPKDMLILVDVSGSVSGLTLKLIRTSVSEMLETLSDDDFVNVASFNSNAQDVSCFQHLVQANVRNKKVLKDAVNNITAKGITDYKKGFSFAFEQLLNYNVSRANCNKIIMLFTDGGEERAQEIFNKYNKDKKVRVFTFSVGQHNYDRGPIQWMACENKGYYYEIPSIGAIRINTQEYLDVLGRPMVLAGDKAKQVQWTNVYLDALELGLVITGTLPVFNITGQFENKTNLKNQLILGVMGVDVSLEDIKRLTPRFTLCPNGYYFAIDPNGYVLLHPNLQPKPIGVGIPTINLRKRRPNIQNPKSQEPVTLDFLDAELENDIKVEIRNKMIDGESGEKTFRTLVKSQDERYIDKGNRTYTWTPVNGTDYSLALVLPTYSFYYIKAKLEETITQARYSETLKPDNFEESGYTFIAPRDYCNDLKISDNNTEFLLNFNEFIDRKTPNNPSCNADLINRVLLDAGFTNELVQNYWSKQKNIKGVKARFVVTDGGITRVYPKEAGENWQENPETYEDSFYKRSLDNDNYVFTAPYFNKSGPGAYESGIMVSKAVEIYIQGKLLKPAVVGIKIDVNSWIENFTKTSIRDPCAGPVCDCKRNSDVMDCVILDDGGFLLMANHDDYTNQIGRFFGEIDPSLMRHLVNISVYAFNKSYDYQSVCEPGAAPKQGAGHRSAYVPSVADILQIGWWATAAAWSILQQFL
T1 sequence (P54289 947-1103 partner limits assumed): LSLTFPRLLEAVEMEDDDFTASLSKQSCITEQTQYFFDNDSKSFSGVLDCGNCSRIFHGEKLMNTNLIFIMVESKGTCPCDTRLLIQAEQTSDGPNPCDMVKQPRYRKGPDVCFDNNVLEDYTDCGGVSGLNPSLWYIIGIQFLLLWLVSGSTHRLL
Outline: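 IMR-32 cells were differentiated 7–13 days (1 mM dibutyryl cAMP, 2.5 µM BrdU) and Indo-1-loaded. They were preincubated 10 min at 30 °C with compound and 5 µM nitrendipine in HEPES/Tris pH 7.4 HBSS with 0.5% BSA, then KCl/CaCl2-depolarized. The peak-minus-basal 400/490 nm emission ratio gave IC50 by four-parameter logistic fit.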

DBA/2 mice = experiment: In vivo anticonvulsant activity, sound-induced tonic seizures in DBA/2 mice; conditions: 30 mg/kg intravenous, tested 15 or 45 minutes after injection
Experimental: A compound of the present invention was dissolved in water using 10% (weight/volume) Emulphor (GAF Corp., Wayne, N.J.) surfactant. Substances were administered by intravenous injection into the retro-orbital venous sinus. All testing was performed 15 minutes or 45 minutes after drug injection. All the male mice, 3-4 weeks old were obtained from Jackson Laboratories Bar Harbour, Me. Immediately before anticonvulsant testing, mice were placed upon a wire mesh, 4 inches square suspended from a steel rod. The square was slowly inverted through 180 degrees and mice observed for 30 seconds. Any mouse falling from the wire mesh was scored as ataxia.
Mice were placed into an enclosed acrylic plastic chamber (21 cm height, approximately 30 cm diameter) with a high-frequency speaker (4 cm diameter) in the center of the top lid. An audio signal generator (Protek model B-810) was used to produce a continuous sinusoidal tone that was swept linearly in frequency between 8 kHz and 16 kHz once each 10 msec. The average sound pressure level (SPL) during stimulation was approximately 100 dB at the floor of the chamber. Mice were placed within the chamber and allowed to acclimatize for 1 minute. DBA/2 mice in the vehicle-treated group responded to the sound stimulus (applied until tonic extension occurred, or for a maximum of 60 sec) with a characteristic seizure sequence consisting of wild running followed by clonic seizures, and later by tonic extension, and finally by respiratory arrest and death in 80% or more of the mice. In vehicle-treated mice, the entire sequence of seizures to respiratory arrest lasts approximately 15-20 seconds.
The incidence of all the seizure phases in the drug-treated and vehicle-treated mice was recorded, and the occurrence of tonic seizures were used for calculatine anticonvulsant ED50 values by probit analysis. Mice were used only once for testing at each time and dose point.

[1] = IMR-32 cells, K+ depolarization, 5 μM nitrendipine to block L-type channels, read-out: IMR 32 IC50
[2] = IMR-32 cells, 5 μM nitrendipine, Examples 116-140, read-out: IMR 32% of Blockade @
[3] = IMR-32 cells, 5 μM nitrendipine

IC50 (N-type Ca^2+ Channel; [1]): 0.67 µM
Compound: CC(C)C[C@@H](C(=O)N[C@@H](Cc1ccc(OCc2ccccc2)cc1)C(=O)NC(C)(C)C)N(C)CC1CCCCC1 (relative stereo) [Example 25, [S-(R*,R*)]-2-(Cyclohexylmethyl-methyl-amino)-4-methyl-pentanoic acid [2-(4-benzyloxy-phenyl)-1-tert-butylcarbamoyl-ethyl]-amide]
DBA/2 mice % Protection dose @ 30 mg/kg (DBA/2 mice): 100%

IC50 (N-type Ca^2+ Channel; [1]): 0.9 µM
Compound: CC(C)C[C@@H](C(=O)N[C@@H](Cc1ccc(OCc2ccccc2)cc1)C(=O)NC(C)(C)C)N(C)Cc1ccco1 (relative stereo) [Example 90, [S-(R*,R*)]-2-(Furan-2-ylmethyl-methyl-amino)-4-methyl-pentanoic acid [2-(4-benzyloxy-phenyl)-1-tert-butylcarbamoyl-ethyl]-amide]
DBA/2 mice % Protection dose @ 30 mg/kg (DBA/2 mice): 60%

IC50 (N-type Ca^2+ Channel; [1]): 2.1 µM
Compound: CC(C)CCN(C)[C@@H](CC(C)C)C(=O)N[C@@H](Cc1ccc(OCc2ccccc2)cc1)C(=O)NCCN1CCOCC1 (relative stereo) [Example 57, [S-(R*,R*)]-4-Methyl-2-[methyl-(3-methyl-butyl)-amino]-pentanoic acid [2-(4-benzyloxy-phenyl)-1-(2-morpholin-4-yl-ethylcarbamoyl)-ethyl]-amide]

IC50 (N-type Ca^2+ Channel; [1]): 1.3 µM
Compound: CC(C)=CCN(C)[C@@H](CC(C)C)C(=O)N[C@@H](Cc1ccc(OCc2ccccc2)cc1)C(=O)NC(C)(C)C (relative stereo) [Example 51, [S-(R*,R*)]4-Methyl-2-[methyl-(3-methyl-but-2-enyl)-amino]-pentanoic acid [2-(4-benzyloxy-phenyl)-1-tert-butylcarbamoyl-ethyl]-amide]

IC50 (N-type Ca^2+ Channel; [2]): 6.4 µM
Compound: CC(C)C[C@@H](C(=O)N[C@@H](Cc1ccc(OCc2ccccc2)cc1)C(=O)N1CCC(O)CC1)N1CCOCC1 (relative stereo) [Example 126, [S-(R*,R*)]4-Methyl-2-morpholin-4-yl-pentanoic acid [2-(4-benzyloxy-phenyl)-1-(4-hydroxypiperidinylcarbamoyl)-ethyl]-amide]

IC50 (N-type Ca^2+ Channel; [2]): 6.5 µM
Compound: [S-(R*,R*)]-4-Methyl-2-(tetrahydropyran-4-yl-amino)-pentanoic acid [2-(4-benzyloxy-phenyl)-1-(2-pyrrolidine-1-yl-ethylcarbamoyl]-amide [Example 130]

IMR 32 % of Blockade @ 1 μM (N-type Ca^2+ Channel; [3]): 61%
IMR 32 % of Blockade @ 10 μM (N-type Ca^2+ Channel; [3]): 80%
Compound: CC(C)CCN(C)C(CC(C)C)C(=O)NC(Cc1ccc(OCc2ccccc2)cc1)C(=O)N1CCN(Cc2ccccc2)CC1 (stereo not drawn) [Example 10, [S-(R*,R*)]4-Methyl-2-[methyl-(3-methyl-butyl)-amino]-pentanoic acid [1-(4-benzyloxy-benzyl)-2-(4-benzyl-piperazin-1-yl)-2-oxo-ethyl]-amide]

IC50 (N-type Ca^2+ Channel; [1]): 0.3 µM
Compound: CC(C)C[C@H](NCC1CCCCC1)C(=O)N[C@@H](Cc1ccc(OCc2ccccc2)cc1)C(=O)OC(C)(C)C (relative stereo) [Example 91, [S-(R*,R*)]-3-(4Benzyloxy-phenyl)-2-[2-(cyclohexylmethyl-amino)-4-methyl-pentanoylamino]-propionic acid tert-butyl ester]

IC50 (N-type Ca^2+ Channel; [1]): 0.46 µM
Compound: CC(C)CCNC(CC(C)C)C(=O)NC(Cc1ccc(OCc2ccccc2)cc1)C(=O)OC(C)(C)C (stereo not drawn) [Example 95, [S-(R*,R*)]-3-(4-Benzyloxy-phenyl)2-[4-methyl-2-(3-methyl-butylamino)-pentanoylamino]-propionic acid tert-butyl ester]

IMR 32 % of Blockade @ 1 μM (N-type Ca^2+ Channel; [3]): 26%
Compound: CC(C)C[C@@H](C(=O)N[C@@H](Cc1ccc(OCc2ccccc2)cc1)C(=O)NC(C)(C)C)N(C)Cc1cccnc1 (relative stereo) [Example 101, [S-(R*,R*)]-4-Methyl-2-(methyl-pyridin-3-ylmethyl-amino)-pentanoic acid [2-(4-benzyloxy-phenyl)-1-tert-butylcarbamoyl-ethyl]-amide]

IMR 32 % of Blockade @ 1 μM (N-type Ca^2+ Channel; [3]): 50%
IMR 32 % of Blockade @ 10 μM (N-type Ca^2+ Channel; [3]): 94%
Compound: CC(C)C[C@@H](C(=O)N[C@@H](Cc1ccc(OCc2ccccc2)cc1)C(=O)N1CCN(Cc2ccccc2)CC1)N(C)C (relative stereo) [Example 4, [S-(R*,R*)]-2-Dimethylamino-4-methyl-pentanoic acid [1-(4-benzyloxy-benzyl)-2-(4-benzyl-piperazin-1-yl)-2-oxo-ethyl]-amide]

IC50 (N-type Ca^2+ Channel; [1]): 1.3 µM
Compound: CC(C)C[C@@H](C(=O)N[C@@H](Cc1ccc(OCc2ccccc2)cc1)C(=O)NCCN1CCCCC1)N(C)CC1CCCCC1 (relative stereo) [Example 27, [S-(R*,R*)]-2-(Cyclohexylmethyl-methyl-amino)-4-methyl-pentanoic acid [2-(4-benzyloxy-phenyl)-1-(2-piperidin-1-yl-ethylcarbamoyl)-ethyl]-amide]

IMR 32 % of Blockade @ 1 μM (N-type Ca^2+ Channel; [3]): 23%
Compound: CC(C)C[C@@H](C(=O)N[C@@H](Cc1ccc(OCc2ccccc2)cc1)C(=O)NC(C)(C)C)N(C)C1CCC(C(C)(C)C)CC1 (relative stereo) [Example 38, [S-(R*,R*)]-2-[(4-tert-Butyl-cyclohexyl)-methyl-amino]-4-methyl-pentanoic acid [2-(4-benzyloxy-phenyl)-1-tert-butylcarbamoyl-ethyl]-amide]

Compound: CC(C)C[C@@H](C(=O)N[C@@H](Cc1ccc(OCc2ccccc2)cc1)C(=O)N1CCCCC1)N(C)C (relative stereo) [Example 2, [S-(R*,R*)]-2-Dimethylamino-4-methyl-pentanoic acid [2-(4-benzyloxy-phenyl)-1-(piperidine-1-carbonyl)-ethyl]-amide]
IMR 32 % of Blockade @ 1 μM (N-type Ca^2+ Channel; [3]): 36%
IMR 32 % of Blockade @ 10 μM (N-type Ca^2+ Channel; [3]): 92%

IC50 (N-type Ca^2+ Channel; [1]): 0.24 µM
Compound: CC(C)CCN[C@@H](CC(C)C)C(=O)N[C@@H](Cc1ccc(OCc2ccccc2)cc1)C(=O)NC(C)(C)C (relative stereo) [Example 105, [S-(R*,R*)]-4-Methyl-2-(3-methyl-butylamino)-pentanoic acid [2-(4-benzyloxy-phenyl)-1-tert-butylcarbamoyl-ethyl]-amide]

IC50 (N-type Ca^2+ Channel; [1]): 1.3 µM
Compound: CC(C)C[C@@H](C(=O)N[C@@H](Cc1ccc(OCc2ccccc2)cc1)C(=O)NC(C)(C)C)N(C)Cc1ccc(O)cc1 (relative stereo) [Example 82, [S-(R*,R*)]-2-[(4-Hydroxy-benzyl)-methyl-amino]-4-methyl-pentanoic acid [2-(4-benzyloxy-phenyl)-1-tert-butylcarbamoyl-ethyl]-amide]

IMR 32 % of Blockade @ 1 μM (N-type Ca^2+ Channel; [3]): 57%
IMR 32 % of Blockade @ 10 μM (N-type Ca^2+ Channel; [3]): 87%
Compound: CC(C)C[C@@H](C(=O)N[C@@H](Cc1ccc(OCc2ccccc2)cc1)C(=O)N1CCN(Cc2ccccc2)CC1)N(C)C1CCCCC1 (relative stereo) [Example 22, [S-(R*,R*)]-2-(Cyclohexyl-methyl-amino)-4-methyl-pentanoic acid [1-(4-benzyloxy-benzyl)-2-(4-benzyl-piperazin-1-yl)-2-oxo-ethyl]-amide]

IC50 (N-type Ca^2+ Channel; [2]): 1.4 µM
Compound: CC(C)C[C@@H](C(=O)N[C@@H](Cc1ccc(OCc2ccccc2)cc1)C(=O)N1CCSCC1)N(C)C (relative stereo) [Example 135, [S-(R*,R*)]-2-Dimethylamino-4-methyl-pentanoic acid [2-(4-benzyloxy-phenyl)-1-(thiomorpholinecarbamoyl)-ethyl]-amide]

IMR 32 % of Blockade @ 0.3 μM (N-type Ca^2+ Channel): 35%
IMR 32 % of Blockade @ 3 μM (N-type Ca^2+ Channel): 74%
Compound: [S-(R*,R*)]-3-Methyl-2-[methyl-(3-methyl-butyl)-amino]-pentanoic acid [2-(4-benzyloxy-phenyl)-1-tert-butylcarbamoyl-ethyl]-amide [Example 44]

IC50 (N-type Ca^2+ Channel; [2]): 1.4 µM
Compound: CC(C)CCN(C)[C@@H](CC(C)C)C(=O)N[C@@H](Cc1ccc(OCc2ccccc2)cc1)C(=O)NC(C)(C)CO (relative stereo) [Example 116, [S-(R*,R*)]4-Methyl-2-[methyl-(3-methylbutyl)-amino]-pentanoic acid [2-(4-benzyloxy-phenyl)-1-(2-hydroxy-1,1-dimethyl-ethylcarbamoyl)-ethyl]-amide]

Compound: CC(C)C[C@@H](C(=O)N[C@@H](Cc1ccc(OCc2ccccc2)cc1)C(=O)NC(C)(C)C)N(C)Cc1ccc(N(C)C)cc1 (relative stereo) [Example 40, [S-(R*,R*)]-2-[(4-Dimethylamino-benzyl)-methyl-amino]-4-methyl-pentanoic acid [2-(4-benzyloxy-phenyl)-1-tert-butylcarbamoyl-ethyl]-amide]
IC50 (N-type Ca^2+ Channel; read-out: IMR 32 IC50): 0.28 µM

IC50 (N-type Ca^2+ Channel; [1]): 4.4 µM
Compound: CCOC(=O)CN(C)[C@@H](CC(C)C)C(=O)N[C@@H](Cc1ccc(OCc2ccccc2)cc1)C(=O)NC(C)(C)C (relative stereo) [Example 96, [S-(R*,R*)]-({1-[2-(4-Benzyloxy-phenyl)-1-tert-butylcarbamoyl-ethylcarbamoyl]-3-methyl-butyl}-methyl-amino)-acetic acid ethyl ester]
